Test results reported in patent US20140173774A1, “SOYBEAN TRAN[…] EFFICIENT AND HIGH-[…] PRODUCTION” (Dow AgroSciences LLC, priority 2012, published 2014).

Assays:
[1] = test system: un-transformed soybean explants; test: Glyphosate dose response study on un-transformed soybean explants in tissue culture; conditions: for Number of Explants at Various Stages of Selection: End of SE-2 / Number of Explants at Various Stages of Selection: SE-1 / Number of Explants at Various Stages of Selection: SE-2 / Number of Explants at Various Stages of Selection: SI-2: 49 explants at CC
Procedure: Initially, a dose response study was completed. To test the effect of glyphosate on the explants, glyphosate was added to media used from the shoot initiation stage and onwards. Glyphosate was tested from the range of 0.025-0.2 mM. Incorporation of glyphosate in tissue culture media within this concentration range has been reported in soybean (Clemente et al, 2000; Hinchee et al, 1996; Martinell et al, 2006; Martinell et al, 1999; Martinell et al, 2002), tobacco (Singer et al, 1985), cotton (Zhao et al, 2006) and wheat (Hu et al, 2003). Five concentrations of glyphosate were tested for culturing of un-transformed soybean explants. The concentrations incorporated into the SI-2 media were 0.025 mM, 0.05 mM, 0.075 mM, 0.1 mM and 0.2 mM. The un-transformed soybean explants were maintained on the same rate of glyphosate selection for all the successive stages of subculture from SI-2 media to the completion of the tissue culturing protocol. The numbers of healthy explants were counted at each subculture stage. Dead explants were discarded and healthy explants were subcultured further onto appropriate media.
Growth of the explants was also retarded on glyphosate containing media. Next, the cotyledons were removed and the explants were subcultured from SI-2 to SE media. At the end of another two weeks of selection on SE media, significant differences in the growth of the explants were observed when the explants were exposed to different levels of glyphosate. The retarded growth of the explants was proportionate to the increasing dose of glyphosate. Similarly the number of dead explants was also proportional to the increasing dose of glyphosate. The number of dead explants increased as the dose of glyphosate was increased. […] Subsequently, three different concentrations of glyphosate (e.g., 0.025 mM, 0.05 mM and 0.1 mM) were incorporated into the selection schemes for Agrobacterium-mediated transformation of the soybean split-seed explants comprising a portion of an embryonic axis.

soybean explants = test: Glyphosate selection of split-seed explants transformed with pDAB107553; set-up: species or system Glycine max cv. Maverick
Procedure: The novel Agrobacterium-mediated soybean split-seed comprising a portion of an embryonic axis transformation method described in Example 2 was used to transform mature soybean (Glycine max) cv. Maverick seeds with an Agrobacterium strain harboring pDAB 107553. Three different concentrations of glyphosate (e.g., 0.025 mM, 0.05 mM and 0.1 mM) were incorporated into the selection schemes for the soybean split-seed comprising a portion of an embryonic axis transformation method.
As the transformation experiment progressed through various subculture stages, the health of the soybean explants deteriorated. […] The intensity of cotyledon yellowing was more prominent in soybean explants cultured on greater rates of glyphosate (FIG. 9).
The surface of the explants was turning soft and creamy in consistency. The softening effect was very pronounced at the end of SE-1 stage onwards.

Structure (SMILES): O=C(O)CNCP(=O)(O)O [glyphosate]
- Number of Explants at Various Stages of Selection: End of SE-2 ([1]; 0.025 mM glyphosate): 0
- Number of Explants at Various Stages of Selection: SE-1 ([1]; 0.025 mM glyphosate): 41
- Number of Explants at Various Stages of Selection: SE-2 ([1]; 0.025 mM glyphosate): 38
- Number of Explants at Various Stages of Selection: SI-2 ([1]; 0.025 mM glyphosate): 43
- Number of Explants at Various Stages of Selection: End of SE-2 ([1]; 0.05 mM glyphosate): 0
- Number of Explants at Various Stages of Selection: SE-1 ([1]; 0.05 mM glyphosate): 45
- Number of Explants at Various Stages of Selection: SE-2 ([1]; 0.05 mM glyphosate): 38
- Number of Explants at Various Stages of Selection: SI-2 ([1]; 0.05 mM glyphosate): 45
- Number of Explants at Various Stages of Selection: End of SE-2 ([1]; 0.075 mM glyphosate): 0
- Number of Explants at Various Stages of Selection: SE-1 ([1]; 0.075 mM glyphosate): 45
- Number of Explants at Various Stages of Selection: SE-2 ([1]; 0.075 mM glyphosate): 21
- Number of Explants at Various Stages of Selection: SI-2 ([1]; 0.075 mM glyphosate): 47
- Number of Explants at Various Stages of Selection: End of SE-2 ([1]; 0.1 mM glyphosate): 0
- Number of Explants at Various Stages of Selection: SE-1 ([1]; 0.1 mM glyphosate): 41
- Number of Explants at Various Stages of Selection: SE-2 ([1]; 0.1 mM glyphosate): 13
- Number of Explants at Various Stages of Selection: SI-2 ([1]; 0.1 mM glyphosate): 44
- Number of Explants at Various Stages of Selection: End of SE-2 ([1]; 0.2 mM glyphosate): 0
- Number of Explants at Various Stages of Selection: SE-1 ([1]; 0.2 mM glyphosate): 31
- Number of Explants at Various Stages of Selection: SE-2 ([1]; 0.2 mM glyphosate): 1
- Number of Explants at Various Stages of Selection: SI-2 ([1]; 0.2 mM glyphosate): 42
- explant survival at the end of SE-2 ([1]; all levels of glyphosate tested, after six weeks on selection): all of the explants were dead
- extent of yellowness of the cotyledons ([1]; end of culturing on SI-2 media, about 2 weeks): directly proportional to the dose of glyphosate
- growth of the explants ([1]; glyphosate containing SI-2 media): retarded
- explants survived at the end of SE-1 ([1]; highest dose, 0.2 mM): one
- explant survival after 6 weeks of glyphosate selection ([1]; lowest dose tested, 0.025 mM): none of the soybean explants were able to survive
- yellowing of the cotyledons (soybean explants; after first selection cycle, two weeks on SI-2 media): yellowing of the cotyledons was noted
- adverse physiological effects on explants (soybean explants; highest level, 0.1 mM, of 0.025, 0.05 and 0.1 mM): greatest adverse physiological effects
- softening of explant tissue (soybean explants; media containing glyphosate, pronounced from end of SE-1): softening on the surfaces of the plant tissues
